Data reported in ChEMBL document CHEMBL3745615, “Synthesis, characterization and biological evaluation of anti-cancer indolizine derivatives via inhibiting β-catenin activity and activating p53” (2016).

Legend:
A549 [1] = assay: Antiproliferative activity against human A549 cells after 3 days by CCK8 assay; format: functional; parameters: concentration or dose not given beside the values
[2] = biological target: T1, Catenin beta-1 (Homo sapiens) (UniProt P35222); assay: Inhibition of beta-catenin transcriptional activity in human A549 cells after 24 hrs by luciferase reporter assay; format: cell-based; parameters: concentration or dose not given beside the values
T1 sequence (whole entry): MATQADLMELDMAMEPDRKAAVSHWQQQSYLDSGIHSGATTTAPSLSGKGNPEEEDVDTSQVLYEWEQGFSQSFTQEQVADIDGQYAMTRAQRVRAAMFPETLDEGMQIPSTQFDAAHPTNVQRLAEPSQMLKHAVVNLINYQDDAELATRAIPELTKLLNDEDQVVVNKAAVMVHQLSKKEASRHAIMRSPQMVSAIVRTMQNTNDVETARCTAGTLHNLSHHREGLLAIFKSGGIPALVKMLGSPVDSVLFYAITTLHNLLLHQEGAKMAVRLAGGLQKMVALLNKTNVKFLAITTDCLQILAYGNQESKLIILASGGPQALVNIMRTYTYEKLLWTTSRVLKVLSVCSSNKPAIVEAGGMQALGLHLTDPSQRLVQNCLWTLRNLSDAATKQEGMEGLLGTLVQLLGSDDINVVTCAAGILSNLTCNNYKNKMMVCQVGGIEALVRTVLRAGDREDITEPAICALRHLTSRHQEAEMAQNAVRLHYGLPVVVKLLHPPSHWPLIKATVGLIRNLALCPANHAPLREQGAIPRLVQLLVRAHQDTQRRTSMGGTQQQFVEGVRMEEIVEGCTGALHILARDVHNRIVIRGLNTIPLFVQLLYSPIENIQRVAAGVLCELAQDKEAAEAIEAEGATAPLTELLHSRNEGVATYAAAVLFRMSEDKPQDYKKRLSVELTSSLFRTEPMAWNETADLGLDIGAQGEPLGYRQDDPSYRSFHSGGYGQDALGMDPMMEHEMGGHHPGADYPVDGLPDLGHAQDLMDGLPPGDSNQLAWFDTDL

A549 [3] = assay: Induction of apoptosis in human A549 cells at 3 uM by annexin V staining-based flow cytometric analysis; format: functional, cell-based; details: TDE = time-dependent effect
A549 [4] = assay: Induction of apoptosis in human A549 cells assessed as dead cells at 3 uM after 1 day by annexin V staining-based flow cytometric analysis (reference value: 0.2%); format: functional
A549 [5] = assay: Induction of apoptosis in human A549 cells assessed as late apoptotic cells at 3 uM after 1 day by annexin V staining-based flow cytometric analysis (reference value: 0.5%); format: functional
A549 [6] = assay: Induction of apoptosis in human A549 cells assessed as live cells at 3 uM after 1 day by annexin V staining-based flow cytometric analysis (reference value: 98%); format: functional
A549 [7] = assay: Induction of apoptosis in human A549 cells assessed as early apoptotic cells at 3 uM after 1 day by annexin V staining-based flow cytometric analysis (reference value: 1.3%); format: functional
A549 [8] = assay: Induction of apoptosis in human A549 cells assessed as dead cells at 3 uM after 2 days by annexin V staining-based flow cytometric analysis (reference value: 0.2%); format: functional
A549 [9] = assay: Induction of apoptosis in human A549 cells assessed as late apoptotic cells at 3 uM after 2 days by annexin V staining-based flow cytometric analysis (reference value: 0.5%); format: functional
A549 [10] = assay: Induction of apoptosis in human A549 cells assessed as live cells at 3 uM after 2 days by annexin V staining-based flow cytometric analysis (reference value: 98%); format: functional
A549 [11] = assay: Induction of apoptosis in human A549 cells assessed as early apoptotic cells at 3 uM after 2 days by annexin V staining-based flow cytometric analysis (reference value: 1.3%); format: functional
A549 [12] = assay: Induction of apoptosis in human A549 cells assessed as dead cells at 3 uM after 3 days by annexin V staining-based flow cytometric analysis (reference value: 0.2%); format: functional
A549 [13] = assay: Induction of apoptosis in human A549 cells assessed as late apoptotic cells at 3 uM after 3 days by annexin V staining-based flow cytometric analysis (reference value: 0.5%); format: functional
A549 [14] = assay: Induction of apoptosis in human A549 cells assessed as live cells at 3 uM after 3 days by annexin V staining-based flow cytometric analysis (reference value: 98%); format: functional
A549 [15] = assay: Induction of apoptosis in human A549 cells assessed as early apoptotic cells at 3 uM after 3 days by annexin V staining-based flow cytometric analysis (reference value: 1.3%); format: functional
A549 [16] = assay: Induction of apoptosis in human A549 cells assessed as up regulation of phosphorylated p53 (S15) level at 3 uM incubated for 12 to 24 hrs by Western blot analysis; format: functional, cell-based; details: TDE = time-dependent effect
A549 [17] = assay: Induction of apoptosis in human A549 cells assessed as up regulation of phosphorylated p53 (S46) level at 3 uM incubated for 12 to 24 hrs by Western blot analysis; format: functional, cell-based; details: TDE = time-dependent effect
A549 [18] = assay: Induction of apoptosis in human A549 cells assessed as up regulation of phosphorylated p53 (S392) level at 3 uM incubated for 12 to 24 hrs by Western blot analysis; format: functional, cell-based; details: TDE = time-dependent effect

CC(=O)c1cc2cccn2c(C(=O)c2ccccc2)c1C
Activity (A549 [1]): 92.02% | Activity [2]: 90.3%

N#Cc1cc2cccn2c(C(=O)c2ccc(OCc3ccccc3)cc2)c1N
Activity (A549 [1]): 35.05% | Activity [2]: 69.1%

N#Cc1cc2cccn2c(C(=O)c2ccccc2)c1N
Activity (A549 [1]): 13.75% | Activity [2]: 26.2%

O=C1CCCc2c1cc1cccn1c2C(=O)c1ccc(F)cc1
Activity (A549 [1]): 40.94% | Activity [2]: 66.2%

N#Cc1cc2cccn2c(C(=O)c2ccc(Cl)cc2)c1N
Activity (A549 [1]): 2.87% | Activity [2]: 13.6%

Cc1c(C(=O)O)cc2cccn2c1C(=O)c1ccccc1
Activity (A549 [1]): 101.93% | Activity [2]: 79.1%

CCOC(=O)c1cc2cccn2c(C(=O)c2ccc(OC)cc2)c1N
Activity (A549 [1]): 98.46% | Activity [2]: 86.4%

CCOC(=O)c1c(N)c(C#N)cc2cccn12
Activity (A549 [1]): 85.35% | Activity [2]: 47%

O=C1CCCc2c1cc1cccn1c2C(=O)c1ccccc1
Activity (A549 [1]): 55.44% | Activity [2]: 67.3%

N#Cc1cc2cccn2c(C(=O)c2ccc(F)cc2)c1N
Activity (A549 [1]): 1.51% | Activity [2]: 22.2%

COc1ccc(C(=O)c2c3c(cc4cccn24)C(=O)CCC3)cc1
Activity (A549 [1]): 51.36% | Activity [2]: 67.5%

O=C1CCCc2c1cc1cccn1c2C(=O)c1ccc(Cl)cc1
Activity (A549 [1]): 47.73% | Activity [2]: 64.5%

COc1ccc(C(=O)c2c(N)c(C#N)cc3cccn23)cc1
Activity (A549 [1]): Dose-dependent effect | Activity (A549 [1]; record 2): 0% | Activity [2]: 7.03% | Activity (A549 [3]): tde | Activity (A549 [4]): 1.15% | Activity (A549 [5]): 2.3% | Activity (A549 [6]): 88.55% | Activity (A549 [7]): 8% | Activity (A549 [8]): 2.25% | Activity (A549 [9]): 9.7% | Activity (A549 [10]): 73.35% | Activity (A549 [11]): 14.7% | Activity (A549 [12]): 0.95% | Activity (A549 [13]): 43.65% | Activity (A549 [14]): 39.8% | Activity (A549 [15]): 15.6% | Activity (A549 [16]): tde | Activity (A549 [17]): tde | Activity (A549 [18]): tde

CC(=O)c1cc2cccn2c(C(=O)c2ccc(Cl)cc2)c1C
Activity (A549 [1]): 79.46% | Activity [2]: 52.9%
